Data taken from ChEMBL document CHEMBL3727355, “Chemokine receptor activity regulator” (2014).

Target: T1, C-C chemokine receptor type 10 (Homo sapiens) (UniProt P46092)
T1 sequence (whole entry): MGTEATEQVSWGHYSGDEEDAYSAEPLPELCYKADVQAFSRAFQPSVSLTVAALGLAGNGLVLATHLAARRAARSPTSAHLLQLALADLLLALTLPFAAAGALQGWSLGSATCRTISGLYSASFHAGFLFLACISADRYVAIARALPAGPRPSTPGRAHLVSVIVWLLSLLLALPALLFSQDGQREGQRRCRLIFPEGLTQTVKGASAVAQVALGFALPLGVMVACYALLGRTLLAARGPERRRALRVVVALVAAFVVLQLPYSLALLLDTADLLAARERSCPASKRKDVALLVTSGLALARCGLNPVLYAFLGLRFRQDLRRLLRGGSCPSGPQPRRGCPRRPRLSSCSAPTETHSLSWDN
Test: Antagonist activity against human CCR10 expressed in human KJMGER8 cells assessed as inhibition of human recombinant CTACK-induced increase in intracellular calcium level at 100 nmol/L pre-incubated for 30 mins before human recombinant CTACK stimulation for 5 mins by FLIPR assay
Type: functional, cell-based

inhibition [%] | Compound
> 100 | CONS(=O)(=O)c1cnn2c(Nc3cc(Cl)ccc3Cl)c(C(=O)N3CCC(c4ccc(F)cc4)CC3)cnc12
> 100 | Cc1ccc(F)c(Nc2c(C(=O)N3CCC(c4ccc(F)cc4)CC3)cnc3c(S(=O)(=O)NC(=O)NC4CC4)cnn23)c1
81.8 | CCNC(=S)NS(=O)(=O)c1cnn2c(Nc3ccc(F)cc3C)c(C(=O)N3CCC(c4ccccc4)CC3)cnc12
> 100 | Cc1cc(F)ccc1Nc1c(C(=O)N2CCC(c3ccccc3)CC2)cnc2c(S(=O)(=O)NC(=O)C(F)(F)F)cnn12
80.6 | O=C(NS(=O)(=O)c1cnn2c(Nc3ccccc3Cl)c(C(=O)N3CCC(c4ccc(F)cc4)CC3)cnc12)C1CC1
99.6 | COC(=O)NS(=O)(=O)c1cnn2c(Nc3ccccc3Cl)c(C(=O)N3CCC(c4ccccc4)CC3)cnc12
62.3 | Cc1ccc(Cl)c(Nc2c(C(=O)N3CCC4(CC3)OCc3ccccc34)cnc3c(S(=O)(=O)NC(=O)NC4CCOCC4)cnn23)c1
93.4 | Cc1cc(F)ccc1Nc1c(C(=O)N2CCC(c3ccccc3)CC2)cnc2c(S(=O)(=O)NC(=O)C3CC3)cnn12
89.4 | O=C(NS(=O)(=O)c1cnn2c(NCc3ccccc3)c(C(=O)N3CCC(c4ccccc4)CC3)cnc12)C1CC1
> 100 | CCNC(=O)NS(=O)(=O)c1cnn2c(Nc3cc(C)ccc3Cl)c(C(=O)N3CCC(c4ccc(F)cc4)CC3)cnc12
95.1 | CCNC(=O)NS(=O)(=O)c1cnn2c(NCc3ccccc3)c(C(=O)N3CCC(c4ccccc4)CC3)cnc12
